Our source for the IC50 values is US20130237533A1, “CDK Inhibitors” (G1 THERAPEUTICS, INC., priority 2010, published 2013).

This assay concerns the target CDK2/cyclinE (Homo sapiens, UniProt P24941). Briefly: Caliper LabChip kinase enzymatic assay, CDK2/cyclinE. It is filed as biochemical. The method, then: Kinase enzymatic reactions were performed in 384-well microplates using a 12-channel Caliper LabChip instrument as a detection device. […] As substrate and product are separated, two peaks of fluorescence are observed. Change in the relative fluorescence intensity of the substrate and product peaks is the parameter measured, reflecting enzyme activity. In the presence of an inhibitor, the ratio between product and substrate is altered. The signal of the product decreases, while the signal of the substrate increases.
Potential inhibitor compounds (as HCl salts) were tested using 12-point dose response curves in single point at the Km, for ATP. The IC50 of each compound was determined using GraphPad Prism.

The mark [1] stands for this setting: Table 2, class symbols, read-out: CDK2/CycE IC50.

Read-outs that look alike come from different tables or passages of the source.

Turning to `O=C1NCCn2c1cc1cnc(Nc3ccc(N4CCNCC4)cn3)nc12` [Compound 3], the IC50 is, setting by setting: under setting [1], over 100000 nM; (enzyme 0.22 nM, (at the Km for ATP), one hour, 12-point dose response, compounds as HCl salts, read-out: CDK2/cyclinE IC50) over 100000 nM. Consider `CC(C)C1CNC(=O)c2cc3cnc(Nc4ccc(N5CCNCC5)cn4)nc3n21` (centres unmarked) [Compound 8], for which the IC50 under setting [1] lay in the range of 1000 to 100000 nM. Regarding `CC(C)[C@@H]1CNC(=O)c2cc3cnc(Nc4ccc(N5CCNCC5)cn4)nc3n21` [Compound 9], the IC50 under setting [1] is 1000 to 100000 nM. The same measure, in the same setting: the figure for `CC(C)[C@H]1CNC(=O)c2cc3cnc(Nc4ccc(N5CCNCC5)cn4)nc3n21` [Compound 10] is 1000 to 100000 nM. On to `CC(C)C[C@H]1CNC(=O)c2cc3cnc(Nc4ccc(N5CCN(C)CC5)cn4)nc3n21` [Compound 12], for which the IC50 under setting [1] is 1000 to 100000 nM.

`CC(C)C[C@H]1CNC(=O)c2cc3cnc(Nc4ccc(N5CCNCC5)cn4)nc3n21` [Compound 13]: the IC50 under setting [1] lay within 1000 to 100000 nM. In the case of `CCC(C)[C@H]1CNC(=O)c2cc3cnc(Nc4ccc(N5CCN(C)CC5)cn4)nc3n21` (some centres unmarked) [Compound 16], the IC50 under setting [1] lay in the range of 1000 to 100000 nM. As for `CCC(C)[C@H]1CNC(=O)c2cc3cnc(Nc4ccc(N5CCNCC5)cn4)nc3n21` (some centres unmarked) [Compound 17], the IC50 under setting [1] lay within 1000 to 100000 nM. As to `CC(C)(C)[C@H]1CNC(=O)c2cc3cnc(Nc4ccc(N5CCNCC5)cn4)nc3n21` [Compound 20], the IC50 under setting [1] fell in the range of 100 to 1000 nM. `CN1C[C@H](C(C)(C)C)n2c(cc3cnc(Nc4ccc(N5CCNCC5)cn4)nc32)C1=O` [Compound 21]: under setting [1], the IC50 lay in the range of 1000 to 100000 nM.

`CN1CCN(c2ccc(Nc3ncc4cc5n(c4n3)[C@@H](c3ccccc3)CNC5=O)nc2)CC1` [Compound 22]: the IC50 under setting [1] fell in the range of 1000 to 100000 nM. On to `O=C1NC[C@H](c2ccccc2)n2c1cc1cnc(Nc3ccc(N4CCNCC4)cn3)nc12` [Compound 23], for which the IC50 under setting [1] was 100 to 1000 nM. As for `CC(C)[C@H]1Cn2c(cc3cnc(Nc4ccc(N5CCNCC5)cn4)nc32)C(=O)N1` [Compound 24], under setting [1], the IC50 is 1000 to 100000 nM.

On to `CC(C)[C@@H]1Cn2c(cc3cnc(Nc4ccc(N5CCNCC5)cn4)nc32)C(=O)N1` [Compound 25], for which the IC50 under setting [1] was 1000 to 100000 nM. For `CC1(C)CNC(=O)c2cc3cnc(Nc4ccc(N5CCNCC5)cn4)nc3n21` [Compound 26], the IC50 under setting [1] is 1000 to 100000 nM. For `CN1CCN(c2ccc(Nc3ncc4cc5n(c4n3)C3(CCCC3)CNC5=O)nc2)CC1` [Compound 29], the IC50 under setting [1] is 1000 to 100000 nM. On to `O=C1NCC2(CCCC2)n2c1cc1cnc(Nc3ccc(N4CCNCC4)cn3)nc12` [Compound 30], for which, under setting [1], the IC50 was 1000 to 100000 nM.

For the molecule `O=C1NCC2(CCCC2)n2c1cc1cnc(Nc3ccc(N4CCOCC4)cn3)nc12` [Compound 32], under setting [1], the IC50 was in the range of 1000 to 100000 nM. As for `O=C1NCC2(CCCC2)n2c1cc1cnc(Nc3ccc(N4CCOCC4)nn3)nc12` [Compound 33], the IC50 under setting [1] is 1000 to 100000 nM. In the case of `O=C1NCC2(CCCC2)n2c1cc1cnc(Nc3ccc(N4CCOCC4)cc3)nc12` [Compound 34], the IC50 under setting [1] was 10 to 100 nM.

`CC(C)N1CCN(c2ccc(Nc3ncc4cc5n(c4n3)C3(CCCC3)CNC5=O)nc2)CC1` [Compound 35]: the IC50 under setting [1] is 1000 to 100000 nM. On the same count and under the same terms, the figure for `CC(C)CN1CCN(c2ccc(Nc3ncc4cc5n(c4n3)C3(CCCC3)CNC5=O)nc2)CC1` [Compound 36] is 1000 to 100000 nM; for `CC1CN(c2ccc(Nc3ncc4cc5n(c4n3)C3(CCCC3)CNC5=O)nc2)CC(C)O1` (centres unmarked) [Compound 37] it is 1000 to 100000 nM. For `O=C1NCC2(CCCC2)n2c1cc1cnc(Nc3ccc(N4CCCCC4)cn3)nc12` [Compound 38], the IC50 under setting [1] fell in the range of 1000 to 100000 nM. Same read-out and setting: the figure for `O=C1NCC2(CCCC2)n2c1cc1cnc(Nc3ccc(N4CCC(N5CCOCC5)CC4)cn3)nc12` [Compound 39] is 1000 to 100000 nM. Still for that read-out and setting: the figure for `O=C1NCC2(CCCC2)n2c1cc1cnc(Nc3ccc(N4CCC(N5CCCCC5)CC4)cn3)nc12` [Compound 40] is 1000 to 100000 nM; for `O=C1NCC2(CCCC2)n2c1cc1cnc(Nc3ccc(N4CCSCC4)cn3)nc12` [Compound 41] it is 1000 to 100000 nM. On the same count and under the same terms, the figure for `CC(C)CC1CNC(=O)c2cc3cnc(Nc4ccc(N5CCNCC5)cn4)nc3n21` (centres unmarked) [Compound 46] is 1000 to 100000 nM.
